Read-outs that look alike come from different tables or passages of the source. Square brackets hold non-standard residues; d marks the D form. Ends that are not written are not given here.

Six molecules from patent US9567367B2, “Synthetic peptides for treatment of bacterial infections” (priority 2012, dated 2017) can be followed below.

The test system of one data set is E. coli strain 018:K1. The experiment in a line: E. coli peritonitis, survival. The class given is in vivo, BALB/c mice.
For a further data set, the system named is S. pyogenes. On the set-up: species or system BALB/c mice. The conditions noted are these: mouse, in vivo.
The next data set concerns Streptococcus pneumoniae. The class given is in vivo, BALB/c mice. The conditions noted are these: ceftriaxone alone 1 mg/kg i.p. (suboptimal) at 24 hours post infection. The method, then:
Treatment with the peptide D-Ala-p2TA was adjunct to antibiotic treatment, and was given at a delayed time point, when the infection was already established.
When the animals are treated with ceftriaxone alone, administered intraperitoneal (i.p.) at a suboptimal dose of LD25 (1 mg/kg), given at 24 hours after the infection, survival rates increased to 20%. However, when the peptide D-Ala-p2TA (at 5 mg/kg) was given in combination with the antibiotics, 24 hours post infection, substantial increase in survival, to 50%, was detected (see FIG. 17).
The correlation between survival benefit and different doses of the peptide D-Ala-p2TA was investigated when the S. pneumoniae infected animals (n=10) received a combination of a fixed dose of antibiotics (ceftriaxone, at a suboptimal dose of 1 mg/kg, administered i.p.) and different doses of the peptide D-Ala-p2TA, given 2 minutes after antibiotic treatment at 24 hours post infection. Under these experimental conditions (see FIG. 18), non-treated mice died rapidly, starting at day 2, and by day 3, all animals were already dead. Antibiotic treatment alone did provide a minor change in survival, bringing it to 20%.

Another data set concerns polymicrobial infection. The experiment in a line: Cecal ligation and puncture (CLP) polymicrobial infection, survival. Format: in vivo, mice. The conditions noted are these: moxifloxacin alone, high dose (LD90) at 12 hours post CLP.
For data set [1] the following is noted: in vivo.

Regarding [dA]ASMDYPVL[dA] [scrambled peptide], the survival rate result in the data set on E. coli strain 018:K1 (scrambled peptide control) was “comparable to the saline treated control”.
`CO/N=C(\C(=O)N[C@@H]1C(=O)N2C(C(=O)O)=C(CSc3nc(=O)c(=O)[nH]n3C)CS[C@H]12)c1csc(N)n1` [ceftriaxone]: the survival in the data set with S. pyogenes was found to be 70%; with Streptococcus pneumoniae, 20%.
As for `COc1c(N2C[C@@H]3CCCN[C@@H]3C2)c(F)cc2c(=O)c(C(=O)O)cn(C3CC3)c12` [moxifloxacin], the survival rate in the data set on polymicrobial infection worked out at 22%.
In the data set with E. coli strain 018:K1 (cefepime alone, suboptimal 5 mg/kg i.m. 4 hours after challenge), `CO/N=C(\C(=O)N[C@@H]1C(=O)N2C(C(=O)[O-])=C(C[N+]3(C)CCCC3)CS[C@H]12)c1csc(N)n1` [cefepime] displayed an overall survival of 20%.
Consider “H-D-Ala-Ser-Pro-Met-Leu-[U-^14C]Val-Ala-Tyr-Asp-D-Ala-OH [[^14C]-D-Ala-p2TA]”, for which, under “5 mg/kg single i.v., radioactivity”, the “time of peak accumulation in lymphatic organs (lymph nodes)” value was determined as 20 min. Further, the “ratio of lymph nodes to plasma” value (4 minutes post infusion) was “greater than 1”. In addition, the “ratio of radioactivity in spleen compared to plasma” value (20 min after injection) came to 6 fold and the “ratio of radioactivity in spleen compared to plasma” value (24 hours post injection) was determined as 3 fold. The “levels in lymph nodes vs plasma” value was 22 fold (20 minutes), “greater than 3 fold” (24 hours post dosing) and “more than 5 fold” (for 2 hours). Besides, the “start of accumulation in lymphatic organs” value (post injection, 5 mg/kg single i.v.) was determined as 4 min.
`CSCC[C@H](NC(=O)[C@@H]1CCCN1C(=O)[C@@H](N)CO)C(=O)N[C@@H](CC(C)C)C(=O)N[C@H](C(=O)N[C@@H](C)C(=O)N[C@@H](Cc1ccc(O)cc1)C(=O)N[C@@H](CC(=O)O)C(=O)O)C(C)C` [p2TA, SPMLVAYD] returned a half-life in data set [1] of 1 to 2.6 min.

For orientation: half-life means the time needed for the level to fall by half in the phase considered. Higher therefore signals slow decline.
